From ChEMBL document CHEMBL3745672, “Novel compounds reducing IRS-1 serine phosphorylation for treatment of diabetes” (Bioorg Med Chem Lett, 2016)
The source made the active and inactive calls. No cut-off for these calls is given here.

Experiments:
HEK293 = test: Cytotoxicity against HEK293 after 24 hrs by CellTiter-Glo luminescent cell viability assay; format: cell-based; details: Homo sapiens, HEK293, 24 h
[1] = molecular target: T1, Mitogen-activated protein kinase 8 (Homo sapiens, UniProt P45983); test: Inhibition of JNK1 (unknown origin)
[2] = molecular target: T1, Mitogen-activated protein kinase 8; test: Inhibition of JNK1 (unknown origin) expressed in HEK293 cells assessed as anisomycin-induced IRS-1(Ser307) phosphorylation at 10 uM incubated for 30 mins by Western blot analysis relative to anisomycin; format: cell-based; design: scale not given: the % may be the effect or the level left
[3] = molecular target: T1, Mitogen-activated protein kinase 8; test: Inhibition of JNK1 (unknown origin) expressed in HEK293 cells assessed as anisomycin-induced c-Jun phosphorylation at 10 uM incubated for 30 mins by Western blot analysis relative to anisomycin; format: cell-based; design: scale not given: the % may be the effect or the level left
[4] = molecular target: T1, Mitogen-activated protein kinase 8; test: Inhibition of JNK1 (unknown origin) expressed in HEK293 cells assessed as anisomycin-induced JNK phosphorylation at 10 uM incubated for 30 mins by Western blot analysis relative to anisomycin; format: cell-based; design: scale not given: the % may be the effect or the level left
[5] = molecular target: Mitogen-activated protein kinase 8 (Rattus norvegicus) (UniProt P49185); test: Inhibition of albumin-conjugated palmitate-induced JNK1/2 phosphorylation assessed as JNK phosphorylation level in rat RINm5F cells incubated for 8 hrs; format: cell-based
[6] = molecular target: Mitogen-activated protein kinase 8 (Rattus norvegicus) (UniProt P49185); test: Inhibition of JNK1 phosphorylation in rat RINm5F cells assessed as suppression of albumin-conjugated palmitate-induced IRS-1 Ser307 phosphorylation incubated for 8 hrs; format: cell-based; design: concentration or dose not given beside the values; details: concentration not given here

T1 sequence (P45983 whole entry): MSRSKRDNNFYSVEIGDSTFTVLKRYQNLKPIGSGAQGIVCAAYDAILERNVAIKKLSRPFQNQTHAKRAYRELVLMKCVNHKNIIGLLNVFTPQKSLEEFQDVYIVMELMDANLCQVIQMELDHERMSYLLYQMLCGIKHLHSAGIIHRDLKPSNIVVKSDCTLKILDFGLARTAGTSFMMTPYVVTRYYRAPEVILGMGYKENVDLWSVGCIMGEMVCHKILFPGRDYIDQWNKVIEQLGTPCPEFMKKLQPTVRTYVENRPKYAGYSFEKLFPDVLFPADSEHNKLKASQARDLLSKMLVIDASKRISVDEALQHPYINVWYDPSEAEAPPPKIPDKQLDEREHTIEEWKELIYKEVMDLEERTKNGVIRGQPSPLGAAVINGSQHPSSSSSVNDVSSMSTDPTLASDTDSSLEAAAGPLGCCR
Mitogen-activated protein kinase 8 (Rattus norvegicus), sequence (P49185 whole entry): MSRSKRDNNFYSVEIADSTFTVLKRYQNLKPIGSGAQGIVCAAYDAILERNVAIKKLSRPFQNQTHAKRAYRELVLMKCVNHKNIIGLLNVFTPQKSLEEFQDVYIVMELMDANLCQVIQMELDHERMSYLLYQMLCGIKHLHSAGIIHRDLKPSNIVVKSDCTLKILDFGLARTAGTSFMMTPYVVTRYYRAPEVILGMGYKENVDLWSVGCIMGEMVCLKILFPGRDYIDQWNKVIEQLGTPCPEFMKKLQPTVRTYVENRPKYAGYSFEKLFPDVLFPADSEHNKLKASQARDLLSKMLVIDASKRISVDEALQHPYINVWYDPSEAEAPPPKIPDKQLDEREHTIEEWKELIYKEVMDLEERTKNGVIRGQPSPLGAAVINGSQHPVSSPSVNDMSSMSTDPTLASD

IC50 [1] [µM] | Activity [2] [%] | Activity [3] [%] | Activity [4] [%] | inhibition ([5]; concentration not given here) [%] | inhibition [6] [%] | inhibition [5] | Compound | IC50 (HEK293) [µM]
> 23 | 127 | 149 | 119 |  |  |  | Cn1c(=O)c(Oc2c(Cl)cccc2Cl)cc2cnc(N3CCC(CO)CC3)nc21 | > 30
> 23 | 88.7 | 104 | 38.1 |  |  |  | Cn1c(=O)c(Oc2ccc(F)cc2F)cc2cnc(N3CCCC(O)C3)nc21 (stereo not given) | > 30
16.1 | 0 | 32.4 | 37.6 | 59 | 93 |  | Cn1c(=O)c(Oc2ccc(F)cc2F)cc2cnc(NC3CCCCC3)nc21 | 14
> 23 | 165 | 104 | 136 |  |  |  | Cn1c(=O)c(Oc2c(Cl)cccc2Cl)cc2cnc(Nc3ccc(N4CCCC4)cc3)nc21 | > 30
> 23 | 26.7 | 102 | 96.1 |  |  |  | Cn1c(=O)c(Oc2ccc(F)cc2F)cc2cnc(NCCN3CCOCC3)nc21 | > 30
19.3 | 8.18 | 115 | 108 |  |  |  | Cn1c(=O)c(Oc2c(Cl)cccc2Cl)cc2cnc(NC3CCCC3)nc21 | > 30
6.73 | 0 | 119 | 84 |  |  |  | Cn1c(=O)c(Oc2ccc(F)cc2F)cc2cnc(NC3CCCCCC3)nc21 | > 26.7
> 23 | 14.3 | 116 | 81.6 |  |  |  | Cn1c(=O)c(Oc2c(Cl)cccc2Cl)cc2cnc(NCCc3ccccn3)nc21 | > 30
 | 14 | 94 |  |  |  |  | Cn1c(=O)c(Oc2ccc(F)cc2F)cc2cnc(NC(CCO)CCO)nc21 [PAMAPIMOD] | > 30
> 23 | 0 | 101 | 94.1 |  |  |  | Cn1c(=O)c(Oc2ccc(F)cc2F)cc2cnc(NCc3cccc(C(F)(F)F)c3)nc21 | > 30
2.75 | 0 | 42 |  |  |  |  | CCOC(=O)N1CCC(Nc2ncc3cc(Oc4ccc(F)cc4F)c(=O)n(C)c3n2)CC1 | > 30
> 23 | 93.6 | 133 | 36.2 |  |  |  | Cn1c(=O)c(Oc2c(Cl)cccc2Cl)cc2cnc(N3CCCC(O)C3)nc21 (stereo not given) | > 30
> 23 | 9.09 | 74 | 58.9 | 54 | 58 |  | Cn1c(=O)c(Oc2c(Cl)cccc2Cl)cc2cnc(Nc3ccc(N4CCC(O)CC4)cc3)nc21 | > 30
10.9 | 0 | 119 | 81 |  |  |  | Cn1c(=O)c(Oc2ccc(F)cc2F)cc2cnc(NC3CCNCC3)nc21 | > 30
0.17 | 97 | 104 |  |  |  |  | NC(=O)c1ccccc1Nc1ccnc(Nc2cccc(O)c2)n1 | > 30
7.17 | 2.61 | 142 | 174 |  |  |  | Cn1c(=O)c(Oc2ccc(F)cc2F)cc2cnc(NC3CC3)nc21 | > 30
2.77 | 0 | 73.5 | 52.9 |  | 87 | inactive | Cn1c(=O)c(Oc2ccc(F)cc2F)cc2cnc(NCCCNS(C)(=O)=O)nc21 | > 30
> 23 | 102 | 121 | 91.6 |  |  |  | Cn1c(=O)c(Oc2ccc(F)cc2F)cc2cnc(N3CCC(CO)CC3)nc21 | > 30

IC50 [1] [µM] | Activity [2] [%] | Activity [3] [%] | Activity [4] [%] | inhibition ([5]; concentration not given here) [%] | inhibition [6] [%] | inhibition [5] | Compound | IC50 (HEK293) [µM]
 | 161 | 88 |  |  |  |  | O=C(O)c1ccccc1Nc1ccnc(Nc2cccc(O)c2)n1 | > 30
> 23 | 40.5 | 99.1 | 96.3 |  |  |  | Cn1c(=O)c(Oc2c(Cl)cccc2Cl)cc2cnc(N3CCC(O)CC3)nc21 | > 30
> 23 | 46.3 | 108 | 129 |  |  |  | Cn1c(=O)c(Oc2c(Cl)cccc2Cl)cc2cnc(Nc3ccc(N4CCCCC4)cc3)nc21 | > 30
> 23 | 79.4 | 103 | 21.1 |  |  |  | Cn1c(=O)c(Oc2ccc(F)cc2F)cc2cnc(N3CCCC(CO)C3)nc21 (stereo not given) | > 30
> 23 | 2.15 | 115 | 35.3 |  |  |  | Cn1c(=O)c(Oc2c(Cl)cccc2Cl)cc2cnc(NCc3ccccn3)nc21 | > 30
4.22 | 15 | 81 |  |  |  |  | CC(C)Nc1ncc2cc(Oc3ccc(F)cc3F)c(=O)n(C)c2n1 | > 30
18.9 | 12.2 | 67.5 | 75.8 |  |  |  | Cn1c(=O)c(Oc2ccc(F)cc2F)cc2cnc(NCCNS(C)(=O)=O)nc21 | > 30
> 23 | 110 | 118 | 110 |  |  |  | Cn1c(=O)c(Oc2c(Cl)cccc2Cl)cc2cnc(N3CCCCC3CO)nc21 (stereo not given) | > 30
> 23 | 74.5 | 82.5 | 74.5 |  |  |  | Cn1c(=O)c(Oc2c(Cl)cccc2Cl)cc2cnc(N3CCC(O)C3)nc21 (stereo not given) | > 30
> 23 | 68.2 | 86.2 | 68.2 |  |  |  | Cn1c(=O)c(Oc2ccc(F)cc2F)cc2cnc(NCc3ccccn3)nc21 | > 30
> 23 | 124 | 131 | 122 |  |  |  | Cn1c(=O)c(Oc2ccc(F)cc2F)cc2cnc(N3CCC(O)CC3)nc21 | > 30
> 23 | 98.9 | 108 | 98.9 |  |  |  | Cn1c(=O)c(Oc2ccc(F)cc2F)cc2cnc(Nc3ccc(N4CCCC4)cc3)nc21 | > 30
14.9 | 14.7 | 128 | 96.1 |  |  |  | Cn1c(=O)c(Oc2c(Cl)cccc2Cl)cc2cnc(NC3CC3)nc21 | > 30
5.93 | 0 | 66.5 | 40 |  | 61 | inactive | Cn1c(=O)c(Oc2ccc(F)cc2F)cc2cnc(NC3CCCC3)nc21 | > 30
> 23 | 51.1 | 111 | 131 |  |  |  | Cn1c(=O)c(Oc2ccc(F)cc2F)cc2cnc(N3CCC(O)C3)nc21 (stereo not given) | > 30
0.05 | 69 | 46 |  |  |  |  | O=C(O)c1ccccc1Nc1ccnc(Nc2cccc(F)c2)n1 | > 30
27.1 | 71.3 | 114 | 139 |  |  |  | Cn1c(=O)c(Oc2c(Cl)cccc2Cl)cc2cnc(NCCN3CCOCC3)nc21 | > 30
> 23 | 99.3 | 103 | 99.3 |  |  |  | Cn1c(=O)c(Oc2c(Cl)cccc2Cl)cc2cnc(N3CCCC(CO)C3)nc21 (stereo not given) | > 30
